From ChEMBL document CHEMBL1201862, “PubChem BioAssay data set” (2004)
Active and inactive are the calls of the source.

Experiments:
[1] = system: H9c2; assay: cells; assay type: functional, cell-based; conditions: Rattus norvegicus, H9c2, Myocardium;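 also: confirmatory concentration-response retest of ultra-high-throughput screening hits for modulation of myocardial damage; cell death induced by hydrogen peroxide oxidative stress; compound pretreatment for 60 min then peroxide exposure for 2 h; potency is for protecting the cells against peroxide damage rather than for killing them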
[2] = target: T1, Calpain-2 catalytic subunit (Sus scrofa, UniProt P43367); assay: pig calpain II inhibitor potency, dose response, biochemical, fluorogenic peptide substrate (AID 1420); assay type: functional
T1 sequence (P43367 whole entry): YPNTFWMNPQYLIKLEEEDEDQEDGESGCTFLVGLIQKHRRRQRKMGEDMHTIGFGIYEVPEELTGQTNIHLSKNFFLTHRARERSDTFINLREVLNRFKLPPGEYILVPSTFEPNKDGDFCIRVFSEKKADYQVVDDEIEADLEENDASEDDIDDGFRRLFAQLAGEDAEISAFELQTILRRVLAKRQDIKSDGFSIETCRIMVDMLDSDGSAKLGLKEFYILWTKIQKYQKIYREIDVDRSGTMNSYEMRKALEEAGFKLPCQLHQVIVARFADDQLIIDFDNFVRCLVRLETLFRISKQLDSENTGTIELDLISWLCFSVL

[3] = microbe, parasite or virus in culture; assay type: functional; conditions: Mycobacterium tuberculosis
[4] = cells; assay type: functional
[5] = target: Large T antigen (Simian virus 40, UniProt P03070); assay type: functional, Betapolyomavirus macacae;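 also: Confirmatory-stage PubChem screen for compounds that inhibit SV40 T antigen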
[6] = target: T2, Streptokinase A (Streptococcus pyogenes serotype M1, UniProt P10520); assay: S. pyogenes streptokinase expression inhibitors, potency, dose response, plasminogen activation absorbance, OD405 (AID 1914); assay type: functional, Streptococcus pyogenes M1 GAS;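 also: secreted streptokinase activity via plasminogen activation per viability signal from cell pellet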
T2 sequence (P10520 whole entry): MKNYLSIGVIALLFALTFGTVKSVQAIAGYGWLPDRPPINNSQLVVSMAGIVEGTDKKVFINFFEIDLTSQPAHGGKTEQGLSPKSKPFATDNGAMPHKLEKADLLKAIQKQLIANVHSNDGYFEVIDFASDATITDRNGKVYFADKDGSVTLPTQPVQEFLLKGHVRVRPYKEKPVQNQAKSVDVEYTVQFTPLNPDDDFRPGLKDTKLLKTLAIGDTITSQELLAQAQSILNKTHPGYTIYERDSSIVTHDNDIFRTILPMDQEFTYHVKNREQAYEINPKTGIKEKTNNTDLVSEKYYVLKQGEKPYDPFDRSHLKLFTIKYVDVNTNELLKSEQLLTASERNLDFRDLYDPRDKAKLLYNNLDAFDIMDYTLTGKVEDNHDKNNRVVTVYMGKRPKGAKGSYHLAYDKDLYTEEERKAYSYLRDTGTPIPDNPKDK

[7] = system: Streptococcus sp. 'group A'; assay: growth inhibition of control SK(-) GAS strain, dose response, counter-screen for streptokinase expression inhibitor project, luminescence, kanamycin, BacTiterGlo, confirmation (AID 1900); assay type: functional, organism-based
[8] = system: Streptococcus; assay: Group A Streptococcus viability loss, dose response, counter-screen for streptokinase expression inhibitor project, luminescence, BacTiterGlo (AID 1915); assay type: functional, organism-based;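 also: potency for reduction of bacterial viability or growth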
[9] = cytotoxicity toward NIH3T3 fibroblasts, dose response, counter-screen, cell-based, ATP luminescence, mouse fibroblasts (AID 2010); assay type: functional;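 also: cells exposed to compound for about 90 hours before reading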
[10] = Luminescence Cell-Based Dose Retest to Confirm Inhibitors of Cancer Stem Cells. [Related pubchem assays (depositor defined):AID2717, AID2721]; assay type: functional; conditions: Homo sapiens
[11] = cells
[12] = inhibitors of intracellular T. cruzi replication, confirmation, NIH3T3 host cells, beta-gal luminescence (AID 2044); assay type: functional, cell-based;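 also: intracellular parasites grown in NIH/3T3 mouse fibroblasts as host cells; luminescent beta-galactosidase reporter signal from transgenic T. cruzi replicating inside host cells; inhibitors lower the luminescence signal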
[13] = target: T3, Estrogen receptor (Homo sapiens, UniProt P03372);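 also: potency for inhibiting coactivator peptide recruitment to the receptor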
T3 sequence (P03372 whole entry): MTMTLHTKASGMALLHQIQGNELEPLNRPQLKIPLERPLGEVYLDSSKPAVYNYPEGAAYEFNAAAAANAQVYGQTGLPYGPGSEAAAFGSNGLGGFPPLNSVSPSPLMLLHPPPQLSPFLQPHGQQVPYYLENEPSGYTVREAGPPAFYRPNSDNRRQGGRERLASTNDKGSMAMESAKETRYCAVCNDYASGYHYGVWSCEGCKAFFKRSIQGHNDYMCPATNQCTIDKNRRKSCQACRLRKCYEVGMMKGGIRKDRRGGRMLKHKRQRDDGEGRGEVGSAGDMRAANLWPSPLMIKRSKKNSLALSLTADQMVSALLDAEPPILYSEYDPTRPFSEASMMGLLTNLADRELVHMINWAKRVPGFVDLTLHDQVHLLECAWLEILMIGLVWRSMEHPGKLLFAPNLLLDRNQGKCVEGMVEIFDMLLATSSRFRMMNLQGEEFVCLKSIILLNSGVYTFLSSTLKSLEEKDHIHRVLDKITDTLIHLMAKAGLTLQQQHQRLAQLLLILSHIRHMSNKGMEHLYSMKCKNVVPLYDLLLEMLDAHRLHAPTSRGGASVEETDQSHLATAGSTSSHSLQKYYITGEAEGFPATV

[14] = target: T4, Heat shock factor protein 1 (Mus musculus, UniProt P38532); assay: inhibition of MG132-induced HSE-luciferase signal, confirmation, cell-based, NIH3T3, luminescence, dose retest (AID 2382); assay type: functional;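 also: NIH3T3 fibroblasts with HSF1-driven luciferase reporter stressed by proteasome inhibitor MG132; luminescence from HSF1-driven luciferase expression after 8 hours of MG132 stress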
T4 sequence (P38532 whole entry): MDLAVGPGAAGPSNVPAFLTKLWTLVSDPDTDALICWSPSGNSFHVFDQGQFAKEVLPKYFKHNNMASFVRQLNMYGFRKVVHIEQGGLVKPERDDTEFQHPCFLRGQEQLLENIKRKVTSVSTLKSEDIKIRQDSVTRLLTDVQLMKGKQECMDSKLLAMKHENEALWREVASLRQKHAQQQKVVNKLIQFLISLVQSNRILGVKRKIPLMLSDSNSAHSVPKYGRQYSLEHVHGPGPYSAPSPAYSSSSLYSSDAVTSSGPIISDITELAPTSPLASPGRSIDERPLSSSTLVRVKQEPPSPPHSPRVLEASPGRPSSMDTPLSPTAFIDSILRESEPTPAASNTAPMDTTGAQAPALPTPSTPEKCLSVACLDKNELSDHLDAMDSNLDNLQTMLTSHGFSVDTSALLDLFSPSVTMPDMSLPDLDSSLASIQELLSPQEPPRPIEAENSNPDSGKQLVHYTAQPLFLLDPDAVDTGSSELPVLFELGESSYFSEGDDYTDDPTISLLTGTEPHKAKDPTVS

[15] = target: Cytochrome P450 2D6 (Homo sapiens, UniProt P10635);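 also: CYP2D6 member of a cytochrome P450 panel assay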
[16] = target: Cytochrome P450 2C9 (Homo sapiens, UniProt P11712)
[17] = THP-1 cell cytotoxicity, dose response, cytotoxicity control for non-replicating M. tuberculosis project (AID 489025); assay type: functional
[18] = C. albicans growth with fluconazole, confirmation, fluorescence, retest (AID 2467); assay type: functional, cell-based
[19] = NIH-3T3 fibroblast cytotoxicity, dose response, cytotoxicity control, cell-based, fluorescence, Alamar Blue, secondary assay (AID 2327); assay type: functional;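 also: NIH-3T3 mouse fibroblasts cultured with fluconazole at 8 µg/mL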
[20] = target: T5, Rac GTPase-activating protein 1 (Homo sapiens, UniProt Q9H0H5); assay: MgcRacGAP GTPase-activating activity inhibitors, confirmation, biochemical, ADP Hunter fluorescence, primary and confirmatory (AID 624330); assay type: functional
T5 sequence (Q9H0H5 whole entry): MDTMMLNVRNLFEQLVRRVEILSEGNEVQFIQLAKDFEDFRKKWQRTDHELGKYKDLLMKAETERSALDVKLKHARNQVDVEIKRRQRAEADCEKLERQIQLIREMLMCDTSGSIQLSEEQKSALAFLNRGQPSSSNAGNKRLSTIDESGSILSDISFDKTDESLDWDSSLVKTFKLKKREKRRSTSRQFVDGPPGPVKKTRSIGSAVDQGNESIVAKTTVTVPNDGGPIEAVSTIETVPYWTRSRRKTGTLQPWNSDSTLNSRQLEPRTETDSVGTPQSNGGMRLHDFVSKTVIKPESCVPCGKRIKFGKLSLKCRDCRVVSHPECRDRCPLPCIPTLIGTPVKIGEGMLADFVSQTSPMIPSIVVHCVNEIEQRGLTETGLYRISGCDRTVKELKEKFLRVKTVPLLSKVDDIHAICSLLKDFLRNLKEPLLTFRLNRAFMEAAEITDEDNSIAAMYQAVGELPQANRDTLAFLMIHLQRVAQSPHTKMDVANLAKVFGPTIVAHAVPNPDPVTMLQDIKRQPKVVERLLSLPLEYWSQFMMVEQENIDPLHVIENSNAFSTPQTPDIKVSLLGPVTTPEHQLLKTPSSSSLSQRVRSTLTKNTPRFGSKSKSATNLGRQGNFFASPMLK

Sequence of Large T antigen (P03070 whole entry): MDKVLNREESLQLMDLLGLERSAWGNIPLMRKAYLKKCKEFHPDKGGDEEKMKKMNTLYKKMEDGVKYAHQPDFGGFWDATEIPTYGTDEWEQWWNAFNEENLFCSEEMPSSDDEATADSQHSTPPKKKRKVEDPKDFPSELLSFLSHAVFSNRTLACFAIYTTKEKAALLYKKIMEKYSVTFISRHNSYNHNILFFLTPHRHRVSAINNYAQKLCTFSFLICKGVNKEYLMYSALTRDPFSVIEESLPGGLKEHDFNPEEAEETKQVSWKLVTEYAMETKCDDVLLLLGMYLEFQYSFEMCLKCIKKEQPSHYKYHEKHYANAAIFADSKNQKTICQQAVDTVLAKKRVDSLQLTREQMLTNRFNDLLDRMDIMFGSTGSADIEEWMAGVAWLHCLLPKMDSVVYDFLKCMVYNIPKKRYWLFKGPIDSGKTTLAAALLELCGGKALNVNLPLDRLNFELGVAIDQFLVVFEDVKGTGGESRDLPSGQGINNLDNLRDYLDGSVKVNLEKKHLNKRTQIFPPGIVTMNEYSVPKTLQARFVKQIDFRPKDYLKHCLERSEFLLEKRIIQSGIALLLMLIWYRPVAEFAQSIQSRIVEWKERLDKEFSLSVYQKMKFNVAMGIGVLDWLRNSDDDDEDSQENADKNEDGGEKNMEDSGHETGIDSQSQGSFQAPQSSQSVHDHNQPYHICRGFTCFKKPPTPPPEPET
Sequence of Cytochrome P450 2C9 (P11712 whole entry): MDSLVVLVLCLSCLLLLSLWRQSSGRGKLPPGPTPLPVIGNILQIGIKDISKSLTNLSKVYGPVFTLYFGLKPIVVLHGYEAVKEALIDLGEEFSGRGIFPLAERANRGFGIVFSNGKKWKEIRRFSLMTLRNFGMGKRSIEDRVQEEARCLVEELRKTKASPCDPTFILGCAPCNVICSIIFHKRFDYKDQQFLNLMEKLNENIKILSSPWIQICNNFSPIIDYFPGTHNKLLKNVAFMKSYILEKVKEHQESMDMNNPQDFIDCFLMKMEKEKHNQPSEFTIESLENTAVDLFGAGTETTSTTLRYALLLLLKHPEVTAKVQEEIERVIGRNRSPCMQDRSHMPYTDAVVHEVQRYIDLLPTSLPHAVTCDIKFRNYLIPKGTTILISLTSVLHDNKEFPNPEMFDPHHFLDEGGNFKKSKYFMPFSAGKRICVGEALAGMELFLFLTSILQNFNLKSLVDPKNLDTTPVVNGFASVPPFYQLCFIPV
Sequence of Cytochrome P450 2D6 (P10635 whole entry): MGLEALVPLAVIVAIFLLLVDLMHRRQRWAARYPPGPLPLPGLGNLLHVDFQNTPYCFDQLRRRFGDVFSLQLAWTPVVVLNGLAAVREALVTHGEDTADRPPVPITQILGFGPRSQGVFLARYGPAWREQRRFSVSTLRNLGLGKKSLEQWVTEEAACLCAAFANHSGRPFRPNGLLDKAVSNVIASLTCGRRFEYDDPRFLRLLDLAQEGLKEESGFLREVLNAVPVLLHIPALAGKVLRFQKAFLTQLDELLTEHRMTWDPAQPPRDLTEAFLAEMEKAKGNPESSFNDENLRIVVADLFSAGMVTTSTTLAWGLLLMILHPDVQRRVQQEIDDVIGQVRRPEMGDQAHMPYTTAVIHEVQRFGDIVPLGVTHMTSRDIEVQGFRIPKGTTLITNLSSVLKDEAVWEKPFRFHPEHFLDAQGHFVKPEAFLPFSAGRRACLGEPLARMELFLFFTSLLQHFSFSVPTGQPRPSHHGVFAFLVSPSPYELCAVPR

CC(OC(=O)Cc1nnc(O)c2ccccc12)C(=O)Nc1ccc(F)cc1Cl (centres undefined)
IC50 [1]: 15.4 µM (active)

Cn1c(=O)c2c3c(sc2n2c(SCC(N)=O)nnc12)CC(C(C)(C)C)CC3 (centres undefined)
IC50 [2]: 42.9 µM (not active)
CC50 [3]: > 40 µM (active)

CNS(=O)(=O)c1cc2c3c(cccc3c1)C(=O)NC2=O
IC50 [1]: 16.9 µM (active)

Cc1ccc2[nH]c(C)c(CCNC(=O)c3cc4cc([N+](=O)[O-])ccc4oc3=O)c2c1
CC50 [3]: > 40 µM (active)
IC50 [4]: 4.92 µM (active)

C=CC(=O)Oc1ccc(N2Cc3ccccc3C2=O)cc1
IC50 [5]: 4.45 µM (active)

CCn1cnc2cc(NCc3cccc(OC)c3O)ccc21
IC50 [5]: 13.3 µM (active)

CCOC(=O)c1nn(-c2cccc(OC)c2)c2nc(Nc3ccccc3)cc(=O)n12
EC50 [6]: > 150 µM (not active)
IC50 [1]: > 79 µM (inactive)
EC50 [7]: 3.12 µM (active)
EC50 [8]: 30 µM (active)

COc1ccccc1CN=C(S)Nc1ccc2nc(N3CCN(C)CC3)cc(C)c2c1
EC50 [9]: > 60 µM (not active)
AC50 [10]: 0.168 µM (active)
EC50 [11]: 0.129 µM (active)
EC50 [12]: < 0.1 µM (active)

CCc1ccc2nc(N(CCN(C)C)C(=O)c3ccc4ncsc4c3)sc2c1
EC50 [9]: > 60 µM (not active)
EC50 [11]: 0.088 µM (active)
EC50 [12]: < 0.1 µM (active)

O=C(CC(Sc1ccc(Br)cc1)C(=O)O)c1ccc(Br)cc1 (centres undefined)
IC50 [5]: 49.4 µM (active)

Cc1nnc(NC(=O)Cc2cccs2)s1
IC50 [13]: 19 µM (active)

CCOC(=O)C1CCCN(C(=O)CCC(=O)Nc2ccc3nc(N4CCOCC4)cc(C)c3c2)C1 (centres undefined)
IC50 [1]: > 79 µM (inactive)

CC1CCC2(CC1)NC(=O)N(CC(=O)c1ccc[nH]1)C2=O (centres undefined)
IC50 [13]: > 50 µM (not active)

N#CSCC(=O)N1c2ccccc2CCc2ccccc21
IC50 [5]: 22 µM (active)

Cc1ccc(NC(=O)c2ccc(Nc3c([N+](=O)[O-])cc([N+](=O)[O-])cc3[N+](=O)[O-])cc2)cc1
EC50 [9]: 15.8 µM (active)
EC50 [11]: 0.071 µM (active)
EC50 [14]: 8.29 µM (active)
EC50 [12]: < 0.1 µM (active)

N#Cc1c(SCC(=O)Nc2nccs2)nc2c(c1-c1ccco1)CCCC2
IC50 [13]: > 50 µM (not active)
EC50 [14]: > 195 µM (not active)

COc1ccc(Cn2c(N)c(C(=O)NCc3ccco3)c3nc4ccccc4nc32)cc1
AC50 [15]: 14.1 µM (inconclusive)
AC50 [16]: 1 µM (inconclusive)
IC50 [13]: 17.3 µM (active)

O=C(CN1CCN(c2ccccc2O)CC1)Nc1ccccc1C(=O)NCCc1ccccc1
CC50 [3]: > 40 µM (active)

O=C(CSc1nnc(-c2ccco2)[nH]1)Nc1sc2c(c1C(=O)Nc1ccccc1)CCCC2
IC50 [13]: 40 µM (not active)

COc1ccc(-c2nnn(CC(=O)OC3CCCCC3)n2)cc1OC
CC50 [17]: > 40 µM (active)
IC50 [4]: 11.6 µM (active)

O=C(CC1CC2CCC1C2)Nc1nc(-c2ccccn2)cs1 (centres undefined)
EC50 [6]: > 150 µM (not active)
IC50 [1]: > 79 µM (inactive)
EC50 [18]: > 38 µM (not active)
EC50 [7]: 4.21 µM (active)
EC50 [8]: 13.2 µM (active)
EC50 [19]: > 150 µM (inactive)

O=C(Nc1cccc(-c2nc3ccccc3s2)c1)c1cc(-n2cnnc2)ccc1Cl
CC50 [3]: > 40 µM (active)
EC50 [18]: 2.98 µM (active)
EC50 [19]: 20.3 µM (inconclusive)

CC(C)(C)NC(=O)C(c1c[nH]c2ccccc12)N(C(=O)Cn1nnc(-c2ccc(F)cc2)n1)c1cccc(O)c1 (centres undefined)
CC50 [3]: > 40 µM (active)

Cc1ccc(NC(=O)CCCc2nc(O)c3ccccc3n2)c(Cl)c1
IC50 [1]: 25.1 µM (active)

O=C(CCc1nc(O)c2ccccc2n1)NNC(=O)c1ccc(F)cc1
IC50 [1]: > 79 µM (inactive)

O=C(N/N=C/c1ccccn1)c1[nH]c2ccc([N+](=O)[O-])cc2c1-c1ccccc1
IC50 [1]: > 79 µM (inactive)

Cc1ccc(C(=O)C=CNNC(=O)c2ccccc2)cc1
CC50 [17]: > 40 µM (active)

Cc1cccc(COc2ccccc2/C=N/Nc2ccc([N+](=O)[O-])cc2)c1
CC50 [3]: > 40 µM (active)
EC50 [18]: > 38 µM (not active)
EC50 [19]: > 150 µM (inactive)

CO/C(O)=C(/C=N/c1ccc(O)cc1)[N+](=O)[O-]
IC50 [20]: 25.5 µM (active)
IC50 [5]: 62.1 µM (active)

C/C(=N\NC(=O)CSc1nc2ccccc2o1)c1ccc(O)cc1
IC50 [20]: 86.9 µM (active)
IC50 [5]: 18.9 µM (active)

O=C(N/N=C/c1ccc(O)c(O)c1)c1cc(-c2ccccc2)nc2ccccc12
IC50 [5]: 54.1 µM (active)
